Measurements published in patent US20070238711A1, “Combination Therapy with Glatiramer Acetate and Minocycline for the Treatment of Multiple Sclerosis” (priority 2004, published 2007).
“And” between values parts separate entries of the source, which are not always exact repeats. Identical values can stand only once.

Assays:
[1] = test system: T lymphocytes; conditions: previous observation; cited from earlier work
[2] = test system: severe EAE; test: Experiment 1: low doses of glatiramer acetate and minocycline on severe EAE (MOG-induced); format: in vivo, C57/BL6 mice; set-up: key to EAE clinical score, individual mouse / EAE clinical score, group average (ave): composite score 0 = no symptoms, 14 = fully quadriplegic, 15 = death; key to Sum of Scores, individual mouse / Sum of Scores, group average (ave): sum of daily clinical scores (0–15 scale) over the experiment; conditions: for effect on clinical scores of EAE: severe EAE, sub-optimal doses, FIG. 2; for Sum of Scores, group average (ave) / Sum of Scores, individual mouse: sum of daily clinical scores over the entire experiment; for effect on disease severity: summary of Experiments 1-2, sub-optimal doses
Experimental: Intraperitoneal pertussis toxin was given on the day of MOG administration and also 2 days after. FIG. 1 presents a layout of the experimental design. Minocycline was administered intraperitoneally at a sub-optimal dose (25 mg/kg) when the first mouse in the entire experiment developed signs of EAE (See FIG. 1). Minocycline was administered daily until mice were sacrificed. […] Thus, we have developed a new system in order to better differentiate functional outcomes. […] For the tail: 0—no symptoms […] For each of the hind limbs or fore limbs, each assessed separately: 0—no symptoms […] Thus, a fully paralysed quadriplegic animal would attain a score of 14. […] Death is automatically given a score of 15. Another parameter that we have employed is the “sum of scores”. This refers to the addition of each daily clinical score over the entire period of the experiment. This is a reflection of the total burden of disease, and takes into account variations in onset of disease, and the daily scores.

[3] = test system: multiple sclerosis; conditions: daily subcutaneous injections, 20 mg/injection; cited from earlier work
[4] = test system: moderate EAE; test: Experiment 2: low doses of glatiramer acetate and minocycline on moderate EAE; format: in vivo, C57/BL6 mice; conditions: sub-optimal doses, FIG. 4
Description: The protocol of Experiment 1 was followed. […] The number of mice in each group was as follows: 8 in the vehicle group, 11 in the minocycline group, 10 in the Copaxone® group, and 9 in the combination group.

[5] = test system: EAE; test: Experiment 3: high doses of glatiramer acetate and minocycline on EAE; format: in vivo, C57/BL6 mice; conditions: Copaxone 375 μg, minocycline 37.5 mg/kg
Experimental: The effects of all treatments versus the control are analyzed histologically (hematoxylin-eosin and Luxol fast blue for evidence of inflammation and demyelination, respectively). Cellular infiltrates are characterized by CD3, CD4, CD8, CD56 and CD19 immunohistochemistry. Blind evaluation (on a qualitative scale from + to ++++) is conducted on the following: the density of perivascular infiltrates, the distance of migration of leukocytes into the CNS parenchyma from blood vessels, and the degree of demyelination. The neuropathological assessments are focused on the optic nerve, lumbar cord and brainstem.

[6] = test system: R-R MS; conditions: versus placebo, 9-month trial; cited from earlier work
[7] = test system: EAE; conditions: cited from earlier work
[8] = Day 0, 15-point scale, Copaxone 250 μg, minocycline 25 mg/kg i.p.

Compound | EAE clinical score, group average (ave) ([2]; Day 0) | EAE clinical score, individual mouse [2, 8] | EAE clinical score, group average (ave) ([2]; Day 9) | EAE clinical score, individual mouse ([2]; Day 9) | EAE clinical score, group average (ave) ([2]; Day 10) | EAE clinical score, individual mouse ([2]; Day 10) | EAE clinical score, group average (ave) ([2]; Day 11) | EAE clinical score, individual mouse ([2]; Day 11) | EAE clinical score, group average (ave) ([2]; Day 12) | EAE clinical score, individual mouse ([2]; Day 12) | EAE clinical score, group average (ave) ([2]; Day 13) | EAE clinical score, individual mouse ([2]; Day 13) | EAE clinical score, group average (ave) ([2]; Day 14) | EAE clinical score, individual mouse ([2]; Day 14) | EAE clinical score, group average (ave) ([2]; Day 15) | EAE clinical score, individual mouse ([2]; Day 15) | EAE clinical score, group average (ave) ([2]; Day 16) | EAE clinical score, individual mouse ([2]; Day 16) | EAE clinical score, group average (ave) ([2]; Day 17) | EAE clinical score, individual mouse ([2]; Day 17) | other results
L-glutamic acid polymer with L-alanine, L-lysine and L-tyrosine, acetate (salt) [Copaxone ®] | 0 | 0 | 1 | 0 (7×) and 3 and 2 | 1 | 0 (5×) and 3 (2×) and 1 and 2 | 3 | 0 (3×) and 4 (2×) and 7 and 8 and 2 and 6 | 4 | 0 (2×) and 5 (2×) and 7 (2×) and 2 and 6 and 8 | 6 | 0 (2×) and 9 (3×) and 5 and 8 (2×) and 7 | 7 | 3 and 8 (5×) and 10 and 0 and 6 | 8 | 4 and 10 (6×) and 0 and 8 | 7 | 8 (4×) and 10 (2×) and 11 and 0 and 3 | 7 | 8 (2×) and 10 (2×) | efficacy previously observed in the T cell transmigration assay [1]: lack of efficacy; EAE clinical score, group average (ave) ([2]; Day 18): 7; EAE clinical score, individual mouse ([2]; Day 18): 9 and 8 and 10; EAE clinical score, group average (ave) ([2]; Day 19): 7; EAE clinical score, individual mouse ([2]; Day 19): 7 and 8 and 12; EAE clinical score, group average (ave) ([2]; Day 20): 6; EAE clinical score, individual mouse ([2]; Day 20): 5 and 8 and 11; EAE clinical score, group average (ave) ([2]; Day 21): 6; EAE clinical score, individual mouse ([2]; Day 21): 7 (2×) and 9; EAE clinical score, group average (ave) ([2]; Day 22): 6; EAE clinical score, individual mouse ([2]; Day 22): 5 (2×) and 9; effect on clinical scores of EAE [2]: slight benefit; Sum of Scores, group average (ave) [2]: 75.56; Sum of Scores, individual mouse [2]: 56 and 88 and 117 and 95 and 0 and 100 and 87 (2×) and 50; effect on disease severity [2]: did not markedly decrease disease severity; relapse rates, progression of disability, new MRI lesions, black holes [3]: reduce relapse rates; effect on EAE severity / disease course [4]: slight attenuation of disease course; effect on disease severity [5]: significantly decreases disease severity; gadolinium-enhancing lesions progressing to persistent black holes [6]: significantly fewer
CN(C)c1ccc(O)c2c1C[C@H]1C[C@H]3[C@H](N(C)C)C(O)=C(C(N)=O)C(=O)[C@@]3(O)C(O)=C1C2=O [Minocycline, [4S-(4∝,4a∝,5a∝,12a∝)]-4,7-bis(dimethylamino)-1,4,4a,5,5a,6,11,12a-octahydro-3,10,12,12a-tetrahydroxy-1,11-dioxo-2-naphthacenecarboxamide] | 0 | 0 | 4 | 3 (2×) and 4 (7×) | 4 | 4 (6×) and 6 (2×) and 3 | 6 | 8 and 5 and 6 (2×) and 7 (4×) and 4 | 7 | 7 (2×) and 6 and 9 and 8 (4×) and 4 | 8 | 7 and 9 (6×) and 4 and 10 | 9 | 8 (2×) and 10 (5×) and 4 and 9 | 9 | 11 and 10 (5×) and 9 and 4 and 6 | 9 | 11 and 10 (3×) and 8 (3×) and 9 and 3 | 8 | 10 (2×) and 8 (2×) | EAE clinical score, group average (ave) ([2]; Day 18): 8; EAE clinical score, individual mouse ([2]; Day 18): 11 (2×) and 6; EAE clinical score, group average (ave) ([2]; Day 19): 7; EAE clinical score, individual mouse ([2]; Day 19): 8 and 11 and 6; EAE clinical score, group average (ave) ([2]; Day 20): 7; EAE clinical score, individual mouse ([2]; Day 20): 8 and 11 and 5; EAE clinical score, group average (ave) ([2]; Day 21): 7; EAE clinical score, individual mouse ([2]; Day 21): 7 and 9 and 5; EAE clinical score, group average (ave) ([2]; Day 22): 7; EAE clinical score, individual mouse ([2]; Day 22): 9 (2×) and 5; effect on clinical scores of EAE [2]: ineffective; Sum of Scores, group average (ave) [2]: 102.3; Sum of Scores, individual mouse [2]: 112 and 121 and 93 and 109 (2×) and 55 and 102 and 122 and 98; effect on disease severity [2]: did not markedly decrease disease severity; disease activity ([7]; chronic relapsing remitting EAE): dramatically suppress disease activity; severity of disease ([7]; mild EAE): attenuate the severity; course of disease ([7]; severe EAE): delay the course; effect on EAE severity / disease course [4]: did not elicit a clinical response; effect on disease severity [5]: significantly decreases disease severity
